These results are taken from patent US6680052B1, “Methods of inhibiting tumor growth using adenosine receptor activated cells” (Endacea, Inc., priority 1999, dated 2004).

Test [1] has as its system pulmonary arterial endothelial cells. As to the kind of experiment: Thromboxane release from pulmonary arterial endothelial cells. In kind it is cell-based. An excerpt:
DPCPX and ^125I-BW A844U. These findings indicate that LPS binds to and activates Al adenosine receptors on pulmonary artery endothelial cells. Also, A1 adenosine receptor antagonists are able to block such endotoxin-induced lung injury, supporting that activation of A1 adenosine receptors is important in endotoxin-induced acute lung injury. Neely, Jin and Keith, Am J. Physiol., Lung Cell Mol. Physiol. , 268:L1036, 1995.
The methods of the present invention also utilize hypoxia and reoxygenation conditions to increase A1 adenosine receptor activation and signal transduction pathways which, following activation, result in the release of cytotoxic substances. As noted above, following ischemia and reperfusion, activation of A1 adenosine receptors present on pulmonary arterial endothelial cells causes a cytotoxic effect (Neely and Keith (1995)), and the release of a cytotoxic substance, thromboxane, has been found by the present inventor to be blocked by an A1 adenosine receptor antagonist (DPCPX). In heart tissue adenosine, A1 adenosine receptor agonists, or a brief period of preconditioning ischemia attenuates ischemia-reperfusion (I-R) injury. In the lung, thromboxane is released during ischemia and is a mediator of I-R injury. Moreover, ischemia and reperfusion enhance the capacity of LPS to produce cytotoxicity and damage organs. […]

The subject of test [2] is pulmonary artery endothelial cells. As to the kind of experiment: Phospholipase A2 increase following hypoxia/anoxia of pulmonary artery endothelial cells in vitro. The format is cell-based. How it is done:
Following ischemia and reperfusion, activation of A1 adenosine receptors present on pulmonary arterial endothelial cells results in a cytotoxic effect. In heart tissue adenosine, A1 adenosine receptor agonists, or a brief period (from approximately 5 to about 15 minutes) of preconditioning ischemia attenuates ischemia-reperfusion (I-R) injury. See, […] Keith, Am. J. Physiol. 268:[…] (1995). In the lung, thromboxane is released during ischemia and is a mediator of I-R injury. Adenosine produces vasoconstriction in the pulmonary vascular bed by acting on A1 receptors to induce the release of thromboxane. These vasoconstrictor responses in endothelial cells are desensitized by prior treatment with low doses of A1 receptor agonists. It was hypothesized that during preconditioning ischemia, adenosine attenuates ischemia-reperfusion injury of the heart by activation and subsequent desensitization of A1 adenosine receptors. Preconditioning ischemia attenuates ischemia-reperfusion (I-R) injury of both lung and heart. […]

For test [3], the target named is T1, A1 adenosine receptors (Homo sapiens, UniProt P30542).
T1 construct: endogenous in cells; host or cells: pulmonary arterial endothelial cells
T1 sequence (P30542 1-326): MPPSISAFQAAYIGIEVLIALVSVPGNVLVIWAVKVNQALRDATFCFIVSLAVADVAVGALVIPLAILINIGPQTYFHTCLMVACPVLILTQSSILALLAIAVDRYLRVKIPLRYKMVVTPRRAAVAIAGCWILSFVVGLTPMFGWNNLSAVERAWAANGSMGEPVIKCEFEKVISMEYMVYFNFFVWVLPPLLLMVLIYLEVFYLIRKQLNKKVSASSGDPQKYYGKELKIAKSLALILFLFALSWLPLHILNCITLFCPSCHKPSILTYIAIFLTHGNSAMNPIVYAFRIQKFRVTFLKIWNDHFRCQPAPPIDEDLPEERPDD
As to the kind of experiment: Endotoxin induced inhibition of adenylate cyclase in pulmonary arterial endothelial cells. The format is cell-based. An excerpt: DPCPX and ^125I-BW A844U. […] Neely, Jin and Keith, Am J. Physiol., Lung Cell Mol. Physiol. , 268:L1036, 1995.

The subject of test [4] is human metastatic cell lines. The conditions noted are these: administered directly to the cell lines, in vitro; cited from earlier work.
Test [5] relates to human epidermoid carcinoma cells. The settings on record: low versus higher concentrations; cited from earlier work.
For test [6], the system named is monocytes. The settings on record: cited from earlier work.

Each structure is given as a SMILES string.

Regarding `CCCn1c(=O)c2[nH]c(C3CCCC3)nc2n(CCC)c1=O` [DPCPX, 1,3 dipropyl 8 cyclopentylxanthine], in test [1] (following ischemia and reperfusion, A1 adenosine receptor activation), the release of thromboxane entry is reported as “blocked”. Further, the “endotoxin induced thromboxane release” value in test [1] (pulmonary arterial endothelial cells) was “blocked”. The “increase in phospholipase A2 (PLA2)” value in test [2] is on record as “inhibits”. The “endotoxin induced inhibition of adenylate cyclase” value in test [3] was “blocked”.

As for `CCNC(=O)[C@H]1O[C@@H](n2cnc3c(N)ncnc32)[C@H](O)[C@@H]1O` [NECA, 5′-(N-ethyl)-carboxamidoadenosine], in test [4], the “effect on cell growth” value is “inhibitory effect”.

Consider `CCCn1c(=O)c2[nH]c(-c3ccc(Cl)cc3N)nc2n(CCC)c1=O` [PACPX, 1,3-dipropyl-8-(2-amino-4-chloropheny)-xanthine], for which the “effect on cell growth” value in test [4] is given as “inhibitory effect”.

For the compound `Nc1ncnc2c1ncn2[C@@H]1O[C@H](CO)[C@@H](O)[C@H]1O` [adenosine], the colony formation result in test [5] is “biphasic response”.

`[Na+].[Na+].[Na+].[O]=[V]([O-])([O-])[O-]` [vanadate, sodium orthovanadate]: the “LPS induced production of TNFα” value in test [6] is listed as “enhanced”.
